This note sets out measurements from article PMC9415646, “Improving Aqueous Solubility and In Vitro Pharmacokinetic Properties of the 3-Nitroimidazo[1,2-a]pyridine Antileishmanial Pharmacophore” (Pharmaceuticals, 2022).

What is called EC50 is the concentration that produces a half-maximal response. The CC50 is the concentration at which the toxic effect on the cells reaches its halfway point. Read a low CC50 as harm at low concentration. As usually defined, the melting point is the temperature of the solid-liquid transition.

Each structure is given as a SMILES string.

Data set [1] concerns L. infantum axenic amastigotes. As to the kind of experiment: Antileishmanial activity on L. infantum axenic amastigotes (luciferase assay). The format is cell-based. Particulars: Leishmania infantum, 48 h, read-out: EC50 L. infantum Axenic Ama. The procedure: L. infantum promastigotes were harvested in logarithmic phase of growth by centrifugation at 900× g for 10 min. The supernatant was removed carefully and was replaced by the same volume of RPMI 1640 complete medium at pH 5.4 and incubated for 24 h at 24 °C. The acidified promastigotes were then incubated for 24 h at 37 °C in a ventilated flask to transform them into axenic amastigotes. The amastigote stage was checked both by electron microscopy (short flagellum with small bulbous tip extending beyond a spherical cell body) and RT-PCR to confirm the overexpression of ATG8 and amastin genes in amastigotes, relative to promastigotes. The effects of the tested compounds on the growth of L. infantum axenic amastigotes were assessed as follows. L. infantum amastigotes were incubated at a density of 2 × 10^6 parasites/mL in sterile 96-well plates with various concentrations of compounds dissolved in DMSO (final concentration less than 0.5% v/v), in duplicate. Appropriate controls treated with DMSO, amphotericin B, miltefosine, fexinidazole and fexinidazole sulfone were added to each set of experiments. After a 48 h incubation period at 37 °C, each plate-well was then microscopically examined to detect any precipitate formation.
• Luciferase activity and determination of EC50 were performed as above.

A short description of data set [2]: Cytotoxicity evaluation on HepG2 cell line (MTT). Type of data set: cell-based. Particulars: human, HepG2 cells. The procedure: The tested molecules’ cytotoxicity was assessed according to the method of Mosmann with slight modifications. […] Triplicate assays were performed for each sample. Each plate-well was then microscope-examined to detect possible precipitate formation before the medium was aspirated from the wells. 100 µL of MTT (3-(4,5-dimethyl-2-thiazolyl)-2,5-diphenyl-2H-tetrazolium bromide) solution (0.5 mg/mL in medium without FCS) were then added to each well. […] Plates were shaken vigorously (700 rpm) for 10 min. The absorbance was measured at 570 nm with 630 nm as reference wavelength using a BIO-TEK ELx808 Absorbance Microplate Reader. DMSO was used as blank and doxorubicin (purchased from Sigma Aldrich) as positive control. Cell viability was calculated as percentage of control (cells incubated without compound). […] (Palo Alto, CA, USA)). CC50 values represent the mean value calculated from three separate experiments.

The subject of data set [3] is L. infantum promastigotes. The experiment in a line: Antileishmanial activity against L. infantum promastigotes (luciferase assay). Particulars: Leishmania infantum, 72 h, read-out: EC50 L. infantum Pro. Type of data set: cell-based. The procedure:
L. infantum promastigotes (MHOM/MA/67/ITMAP-263, CNR Leishmania, Montpellier, France, expressing luciferase activity) were used in the following tests. The effects of the tested compounds on the growth of L. infantum promastigotes were assessed by Luciferase Assay. Briefly, promastigotes in log-phase in RPMI 1640 medium supplemented with 10% fetal calf serum (FCS), 2 mM L-glutamine and antibiotics (100U/mL penicillin, 100 µg/mL streptomycin and 50µg/mL geneticin), were incubated at an average density of 10^6 parasites/mL (100 µL/well) in sterile 96-well plates with various concentrations of compounds dissolved in DMSO (final concentration less than 0.5% v/v), in duplicate. Appropriate controls (100 µL/well) treated by DMSO and reference drugs (purchased for the majority from Sigma Aldrich) were added to each set of experiments. After a 72 h incubation period at 24 °C, each plate-well was then microscope-examined for detecting possible precipitate formation. To estimate the luciferase activities of promastigotes, 80 µL of each well are transferred in white 96-well plates, Steady Glow reagent (Promega) was added according to manufacter’s instructions, and plates were incubated for 2 min. The luminescence was measured in a FLUOstar Omega (BMG Labtech, Champigny-sur-Marne, France). […] EC50 were calculated by non-linear regression analysis processed on dose–response curves, using TableCurve 2D V5 software.

A short description of data set [4]: Cytotoxicity on THP-1 cell line (MTT). Type of data set: cell-based. The settings on record: human, THP-1 cells, THP1 cell line. The procedure: The plates were incubated for 72 h at 37 °C. Each well plate was then microscope-examined for detecting possible precipitate formation before the medium was aspirated from the wells. 100 µL of MTT solution (0.5 mg/mL in medium) were then added to each well. Cells were incubated for 2 h at 37 °C. […] Plates were shaken vigorously (300 rpm) for 10 min. The absorbance was measured at 570 nm using a BIO-TEK ELx808 Absorbance Microplate Reader. DMSO was used as blank and doxorubicin (purchased from Sigma Aldrich) as positive control. Cell viability was calculated as percentage of control (cells incubated with DMSO). […] (Palo Alto, CA, USA). CC50 values represent the mean value calculated from three separate experiments.

Data set [5] in a line: Parallel artificial membrane permeability assay (PAMPA). Type of data set: in vitro ADME.
A short description of data set [6]: Mouse microsomal stability. The format is in vitro ADME. Particulars: female, CD-1, pH 7.4; mouse liver microsomes; read-out: Mouse Microsomal Stability T1/2. The protocol:
The tested product and propranolol, used as reference, were incubated in duplicate (reaction volume of 0.5 mL) with female mouse microsomes (CD-1, 20 mg/mL, BD Gentest™) at 37 °C in a 50 mM phosphate buffer, pH 7.4, in the presence of MgCl2 (5 mM), NADP (1 mM), glucose-6-phosphate dehydrogenase (0.4 U/mL) and glucose-6-phosphate (5 mM). […] After centrifugation at 10,000× g, 10 min, 4 °C, the supernatants were maintained at 4 °C for immediate analysis or placed at -80 °C for later analysis. Controls (t0 and tfinal) in triplicate were prepared by incubation of the internal standard with microsomes denatured by acetonitrile. […] The mobile phases were (A) ammonium acetate 10 mM and (B) acetonitrile with 0.1% formic acid. The injection volume was 1 µL and the flow rate 600 µL/min. […] Each compound was quantified by converting the average of the ratios of the analyte/internal standard surfaces to the percentage of product consumed. The ratio of the control at t0 corresponded to 0% of product consumed. The half-life (T1/2) of each compound in the presence of microsomes was calculated according to the equation: t1/2=ln(2)/k , where k is the first-order degradation constant (the slope of the logarithm of compound concentration versus incubation time). The intrinsic clearance in vitro (Clint expressed in μL/min/mg) is calculated according to the equation: Clint=dose/AUC∞/[microsomes] where “dose” is the initial concentration of product in the sample, AUC∞ is the area under the concentration-time curve extrapolated to infinity and [microsomes] is the microsome concentration expressed in mg/µL.
A general note: Microsomes from liver hold many membrane-bound enzymes, among them those of drug oxidation.

For the compound `O=[N+]([O-])c1c(CS(=O)(=O)c2ccc(OC(F)(F)F)cc2)nc2c(Sc3ccc(Cl)cc3)cc(Cl)cn12` [Compound 3e, 6-Chloro-8-[(4-Chlorophenyl)thio]-3-Nitro-2-[(4-Trifluoromethoxyphenylsulfonyl)methyl]imidazo[1,2-a]pyridine], the melting point was 173 °C. Besides, the EC50 in data set [1] worked out at 0.8 ± 0.2 µM. The half-maximal cytotoxic concentration (CC50) at 72 h in data set [2] is over 12.5 µM. Further, the EC50 in data set [3] worked out at 3.1 ± 0.2 µM. Also, in data set [4], the CC50 at 72 h was over 100 µM.
`O=[N+]([O-])c1c(CS(=O)(=O)C2CC2)nc2c(Sc3ccc(Cl)cc3)cc(Cl)cn12` [Compound 3h, 6-Chloro-8-[(4-Chlorophenyl)thio]-2-[(cyclopropylsulfonyl)methyl]-3-Nitroimidazo[1,2-a]pyridine] yielded a melting point of 196 °C. Moreover, the EC50 in data set [1] came to 2.4 ± 0.1 µM. For the same compound, half-maximal cytotoxicity in data set [2] (CC50 at 72 h) was put at 22.3 ± 2.5 µM. Moreover, the EC50 in data set [3] amounted to 2.2 ± 0.3 µM. This compound also showed a CC50 at 72 h in data set [4] of over 62.5 µM.
In turn, `O=[N+]([O-])c1c(CS(=O)(=O)c2ccc(OC(F)(F)F)cc2)nc2c(Br)cc(Cl)cn12` [Compound 2f, 8-Bromo-6-Chloro-3-Nitro-2-[(4-Trifluoromethoxyphenylsulfonyl)methyl]imidazo[1,2-a] pyridine] displayed a melting point of 178 °C. Also, in data set [1], the EC50 came to 2.7 ± 0.4 µM. In addition, the CC50 at 72 h in data set [2] was over 25 µM. For the same compound, the EC50 in data set [3] was 6.7 ± 0.8 µM. The CC50 at 72 h in data set [4] is over 100 µM.
In the case of `COc1ccc(S(=O)(=O)Cc2nc3c(Br)cc(Cl)cn3c2[N+](=O)[O-])cc1` [Compound 2g, 8-Bromo-6-Chloro-2-[(4-Methoxyphenylsulfonyl)methyl]-3-Nitroimidazo[1,2-a]pyridine], the melting point came to 226 °C. Also, in data set [1], the EC50 is 2.3 ± 0.3 µM. In data set [2], this compound displayed a half-maximal cytotoxic concentration (CC50) at 72 h of 3.9 ± 1.3 µM. In addition, the EC50 in data set [3] stood at 9.3 ± 1.2 µM. Further, the 50% cytotoxic concentration (CC50) at 72 h in data set [4] was over 100 µM.
Taken in the same sequence, the figures for `O=[N+]([O-])c1c(CS(=O)(=O)c2ccc(O)cc2)nc2c(Sc3ccc(Cl)cc3)cc(Cl)cn12` [Compound 3a, 4-{[(6-Chloro-8-[(4-Chlorophenyl)thio]-3-Nitroimidazo[1,2-a]pyridin-2-yl)methyl]sulfonyl}phenol] were 241 °C, 1.4 ± 0.3 µM, 22.3 ± 2.5 µM, 5.6 ± 0.9 µM and 28.2 ± 0.1 µM.
For `CSc1ccc(OCc2ncc([N+](=O)[O-])n2C)cc1` [Fexinidazole, reference compound], the EC50 in data set [1] came out at 7.8 ± 2.3 µM; in data set [3], 1 ± 0.1 µM. Moreover, the CC50 at 72 h in data set [2] and in data set [4] was over 100 µM each time.
On to `O=[N+]([O-])c1c(CS(=O)(=O)c2ccccc2)nc2c(Br)cc(Cl)cn12` [Hit A, 8-Bromo-6-chloro-3-nitro-2-(phenylsulfonylmethyl)imidazo[1,2-a]pyridine, reference compound], for which the “PAMPA GIT at pH 7.4 Pe” value in data set [5] was found to be 173.2 nm/s. For the same compound, in data set [5] (PAMPA, pH 7.4, read-out: PAMPA GIT at pH 7.4 Pe), the Papp at 4 h, 100 µM was 17.3 ± 3.88 ×10⁻⁶ cm/s. Also, the EC50 in data set [1] was 16.4 ± 1.3 µM; in data set [3], 8.7 ± 0.7 µM. The CC50 at 72 h in data set [2] was over 15.6 µM; in data set [4], over 100 µM. Moreover, in data set [6], the half-life amounted to 11 min.
For `COc1ccc(S(=O)(=O)Cc2nc3c(Sc4ccc(Cl)cc4)cc(Cl)cn3c2[N+](=O)[O-])cc1` [Compound 3f, 6-Chloro-8-[(4-Chlorophenyl)thio]-2-[(4-Methoxyphenylsulfonyl)methyl]-3-Nitroimidazo[1,2-a]pyridine], the melting point amounted to 214 °C. In addition, the concentration giving a half-maximal response (EC50) in data set [1] was determined as 0.5 ± 0.1 µM. Moreover, in data set [2], the 50% cytotoxic concentration (CC50) at 72 h is over 3.9 µM. Also, in data set [3], the EC50 was 1.2 ± 0.1 µM. Moreover, in data set [4], the CC50 at 72 h was over 50 µM.
Regarding `O=[N+]([O-])c1c(CS(=O)(=O)c2ccc(Cl)cc2)nc2c(Sc3ccc(Cl)cc3)cc(Cl)cn12` [Compound 3b, 6-Chloro-2-[(4-Chlorophenylsulfonyl)methyl]-8-[(4-Chlorophenyl)thio]-3-Nitroimidazo[1,2-a]pyridine], the melting point is 221 °C. Moreover, the EC50 in data set [1] was found to be 1 ± 0.1 µM. Further, it took 8.9 ± 1.3 µM to reach half-maximal cytotoxicity in data set [2] (CC50 at 72 h). For the same compound, the half-life in data set [6] came out at 4.5 min. Also, the EC50 in data set [3] came to 1.2 ± 0.1 µM. Besides, in data set [4], the CC50 at 72 h was over 15.6 µM.
Take `O=[N+]([O-])c1c(CS(=O)(=O)CCC(F)(F)F)nc2c(S(=O)(=O)c3ccc(Cl)cc3)cc(Cl)cn12` [Compound 6b, 6-Chloro-8-[(4-Chlorophenyl)sulfonyl]-3-Nitro-2-[(3,3,3-Trifluoropropylsulfonyl)methyl] imidazo[1,2-a]pyridine]: the melting point stood at 233 °C. The EC50 in data set [1] is 2.3 ± 0.3 µM. Further, the cytotoxic concentration (CC50) at 72 h in data set [2] was over 10 µM. For the same compound, in data set [6], the half-life was 7.9 min. For the same compound, the EC50 in data set [3] amounted to 13.7 ± 0.9 µM. The 50% cytotoxic concentration (CC50) at 72 h in data set [4] is over 100 µM.
The compound `O=[N+]([O-])c1c(CS(=O)(=O)c2ccc(F)cc2)nc2c(Sc3ccc(Cl)cc3)cc(Cl)cn12` [Compound 3c, 6-Chloro-8-[(4-Chlorophenyl)thio]-2-[(4-Fluorophenylsulfonyl)methyl]-3-Nitroimidazo[1,2-a]pyridine] gave a melting point of 197 °C. In addition, the EC50 in data set [1] stood at 0.2 ± 0.1 µM. This compound also showed a CC50 at 72 h in data set [2] of over 15.6 µM. Further, the half-life in data set [6] came to 5.7 min. Further, the half-maximal effective concentration (EC50) in data set [3] turned out to be 1.5 ± 0.1 µM. Also, the 50% cytotoxic concentration (CC50) at 72 h in data set [4] is over 100 µM.
For the compound `O=[N+]([O-])c1c(CS(=O)(=O)c2ccc(C(F)(F)F)cc2)nc2c(Sc3ccc(Cl)cc3)cc(Cl)cn12` [Compound 3d, 6-Chloro-8-[(4-Chlorophenyl)thio]-3-Nitro-2-[(4-Trifluoromethylphenylsulfonyl)methyl]imidazo[1,2-a]pyridine], the melting point stood at 222 °C. In addition, in data set [1], the concentration for a half-maximal effect (EC50) is 0.8 ± 0.1 µM. In addition, the CC50 at 72 h in data set [2] is over 3.9 µM. Moreover, in data set [3], the concentration for a half-maximal effect (EC50) is 3.3 ± 0.4 µM. The compound further had a CC50 at 72 h in data set [4] of over 50 µM.
